# Tested on: hepatocytes
# Assay: Seq-Well scRNA-Seq of hepatocytes after APAP overdose (signature scores, DEG vs untreated)
# Type: in vivo, mouse
# [1] = cluster A6, DEG between treatment (APAP and PH)
compound,measurement,setting,value
"CC(=O)Nc1ccc(O)cc1 [APAP, acetaminophen]",Ugdh avg_logFC,cluster A6 (APAP 6 hr),0.5563
same,Ugdh pct.1,cluster A6 (APAP 6 hr),0.721
same,Vcam1 avg_logFC,cluster A6 (APAP 6 hr),0.4376
same,Vcam1 pct.1,cluster A6 (APAP 6 hr),0.134
same,Vsig4 avg_logFC,cluster A6 (APAP 6 hr),0.4542
same,Vsig4 pct.1,cluster A6 (APAP 6 hr),0.117
same,Wfdc17 avg_logFC,cluster A6 (APAP 6 hr),0.4173
same,Wfdc17 pct.1,cluster A6 (APAP 6 hr),0.177
same,Xbp1 avg_logFC,cluster A6 (APAP 6 hr),0.4407
same,Xbp1 pct.1,cluster A6 (APAP 6 hr),0.692
same,Ywhag avg_logFC,cluster A6 (APAP 6 hr),0.4649
same,Ywhag pct.1,cluster A6 (APAP 6 hr),0.518
same,mmu-mir-6240 avg_logFC,cluster A6 (APAP 6 hr),1.083
same,mmu-mir-6240 pct.1,cluster A6 (APAP 6 hr),0.413
same,avg_logFC 1700017B05Rik,[1],0.3277
same,avg_logFC 2010003K11Rik,[1],0.5729
same,avg_logFC AA474408,[1],0.2664
same,avg_logFC Aass,[1],0.4071
same,avg_logFC Abca1,[1],0.6539
same,avg_logFC Abhd2,[1],0.4149
same,avg_logFC Actb,[1],1.052
same,avg_logFC Aff4,[1],0.5363
same,avg_logFC Agpat9,[1],0.3049
same,avg_logFC Alb,[1],0.3749
same,avg_logFC Apoa4,[1],1.166
same,avg_logFC Apob,[1],0.4802
same,avg_logFC App,[1],0.3381
same,avg_logFC Arhgef12,[1],0.4856
same,avg_logFC Asl,[1],0.4135
same,avg_logFC B4galt5,[1],0.4239
same,avg_logFC Bach1,[1],0.7686
same,avg_logFC Bcl2l1,[1],0.7415
same,avg_logFC Bcl3,[1],0.2741
same,avg_logFC Btg1,[1],0.3984
same,avg_logFC Btg2,[1],0.7669
same,avg_logFC C3,[1],0.2785
same,avg_logFC C230081A13Rik,[1],0.4184
same,avg_logFC Cars,[1],0.3067
same,avg_logFC Ccl6,[1],0.7868
same,avg_logFC Cdkn1a,[1],1.252
same,avg_logFC Cers6,[1],0.5071
same,avg_logFC Chic2,[1],0.3964
same,avg_logFC Chka,[1],1.403
same,avg_logFC Cidec,[1],0.3067
same,avg_logFC Cldn14,[1],0.3695
same,avg_logFC Clec4f,[1],1.124
same,avg_logFC Cltc,[1],0.6852
same,avg_logFC Creb3l2,[1],0.3971
same,avg_logFC Ctsl,[1],0.5128
same,avg_logFC Cxadr,[1],0.6568
same,avg_logFC Cyp4a14,[1],0.3334
same,avg_logFC D10Wsu102e,[1],0.5698
same,avg_logFC Ddx3x,[1],0.5612
same,avg_logFC Ddx5,[1],0.5397
same,avg_logFC Ddx21,[1],0.6559
same,avg_logFC Dgkd,[1],0.3584
same,avg_logFC Dkc1,[1],0.3054
same,avg_logFC Dot1l,[1],0.3853
same,avg_logFC Dusp6,[1],0.5087
same,avg_logFC Dusp16,[1],0.4273
same,avg_logFC Eaf1,[1],0.5072
same,avg_logFC Eef2,[1],0.4059
same,avg_logFC Efhd2,[1],0.5766
same,avg_logFC Egr1,[1],0.537
same,avg_logFC Eif1a,[1],0.7228
same,avg_logFC Eif4g2,[1],0.4126
same,avg_logFC Eif5,[1],0.4809
same,avg_logFC Epas1,[1],0.7138
same,avg_logFC Epb4.1,[1],0.4678
same,avg_logFC Errfi1,[1],0.3421
same,avg_logFC Etf1,[1],0.4526
same,avg_logFC Ets2,[1],0.6806
same,avg_logFC Fam107b,[1],0.4162
same,avg_logFC Fam134b,[1],0.8152
same,avg_logFC Fga,[1],0.501
same,avg_logFC Fgb,[1],0.4774
same,avg_logFC Fgg,[1],0.4751
same,avg_logFC Fkbp5,[1],0.4567
same,avg_logFC Fndc3b,[1],0.3496
same,avg_logFC Gclc,[1],1.802
same,avg_logFC Gcnt2,[1],0.5038
same,avg_logFC Gjb2,[1],0.5038
same,avg_logFC Gm15564,[1],0.7861
same,avg_logFC Gm20594,[1],0.4405
same,avg_logFC Gm24245,[1],0.4984
same,avg_logFC Gm26917,[1],0.4239
same,avg_logFC Gm26924,[1],0.7269
same,avg_logFC Gn12,[1],0.358
same,avg_logFC Gnl3,[1],0.4902
same,avg_logFC Gpt2,[1],0.4695
same,avg_logFC Gsta1,[1],0.4089
same,avg_logFC Gtpbp4,[1],0.4623
same,avg_logFC H3f3b,[1],0.7184
same,avg_logFC Hbb-bs,[1],2.586
same,avg_logFC Heatr1,[1],0.3815
same,avg_logFC Hif1a,[1],0.4876
same,avg_logFC Hilpda,[1],0.7803
same,avg_logFC Hmox1,[1],1.34
same,avg_logFC Hnf4a,[1],0.6962
same,avg_logFC Hnrnpdl,[1],0.3993
same,avg_logFC Hsd17b13,[1],0.4804
